According to publication PMC6925343 (ACS chemical biology, 2019):

What was measured:
[1] = test system: RANBP3 Ser58/Ser126 phosphorylation; experiment: RANBP3 Ser58/Ser126 phosphorylation in CSA treated HeLa cells, Western blot; type: cell-based; details: CSA 45 min, anti-pSer58/pSer126-RANBP3 antibody
[2] = test system: SMAD2 localization in HeLa cells; details: CSA 45 min, n = 90 cells, three independent replicates

Substance: Cyclosporine A [CSA]
- increase of Ser58/Ser126 phosphorylation of RANBP3 [1]: approximately 2 fold
- total SMAD2 levels [2]: not changed
